Structures are written as SMILES. Active and inactive are the calls of the source.

What is called EC50 is the concentration giving half of the maximal effect. Broadly, the AC50 is the midpoint of the concentration-response curve, whichever way the signal moves. A word on the CC50: it is the concentration giving 50% cytotoxicity.

Targets include Cytochrome P450 3A4 (Homo sapiens, UniProt P08684); Cytochrome P450 2D6 (Homo sapiens, UniProt P10635); Cytochrome P450 2C9 (Homo sapiens, UniProt P11712).
Assay [1] has as its target T1, Heat shock factor protein 1 (Mus musculus, UniProt P38532).
T1 sequence (P38532 whole entry): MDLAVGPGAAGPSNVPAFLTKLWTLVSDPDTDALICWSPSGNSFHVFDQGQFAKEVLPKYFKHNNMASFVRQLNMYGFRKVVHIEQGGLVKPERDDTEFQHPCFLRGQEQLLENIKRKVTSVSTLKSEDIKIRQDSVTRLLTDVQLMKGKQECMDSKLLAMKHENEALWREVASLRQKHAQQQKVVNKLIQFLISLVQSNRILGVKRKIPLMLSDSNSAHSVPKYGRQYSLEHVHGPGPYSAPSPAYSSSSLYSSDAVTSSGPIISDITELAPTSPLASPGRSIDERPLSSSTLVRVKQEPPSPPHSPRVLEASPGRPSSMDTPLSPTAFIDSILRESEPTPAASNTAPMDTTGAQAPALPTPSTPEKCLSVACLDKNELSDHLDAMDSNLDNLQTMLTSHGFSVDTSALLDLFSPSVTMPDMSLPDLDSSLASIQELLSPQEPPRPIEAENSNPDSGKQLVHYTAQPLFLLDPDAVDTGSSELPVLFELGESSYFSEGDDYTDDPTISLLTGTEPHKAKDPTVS
The assay can be described thus: HSF1 potentiators in luciferase reporter cells, confirmation, cell-based, NIH3T3, luminescence, dose retest (AID 435004).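 Further: stress induced by proteasome inhibitor MG132 added 30 min after compound; luciferase reporter driven by HSF1 response element in NIH3T3 cells; actives raise luminescence as potentiators of the MG132 stress response.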 In kind it is functional. (In general: A reporter such as luciferase makes a cellular process visible.)

The target of a further assay is Cytochrome P450 2C19 (Homo sapiens, UniProt P33261). The assay can be described thus: Cytochrome panel assay with activity outcomes. Panel member name: p450-cyp2c19 Compounds with AC50 equal or less than 10 uM are considered active. In kind it is functional. As to conditions: read-out: AC50.
The test system of assay [2] is Streptococcus sp. 'group A'. The assay can be described thus: growth inhibition of control SK(-) GAS strain, dose response, counter-screen for streptokinase expression inhibitor project, luminescence, kanamycin, BacTiterGlo, confirmation (AID 1900). In kind it is functional, organism-based. A general note: The purpose of a counterscreen is to sort out artefacts and off-target activity.

The next assay deals with Streptococcus. Nature of the assay: Group A Streptococcus viability loss, dose response, counter-screen for streptokinase expression inhibitor project, luminescence, BacTiterGlo (AID 1915).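 Further: potency for reduction of bacterial viability or growth.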 In kind it is functional, organism-based.
Another assay concerns the target T2, Streptokinase A (Streptococcus pyogenes serotype M1, UniProt P10520).
T2 sequence (P10520 whole entry): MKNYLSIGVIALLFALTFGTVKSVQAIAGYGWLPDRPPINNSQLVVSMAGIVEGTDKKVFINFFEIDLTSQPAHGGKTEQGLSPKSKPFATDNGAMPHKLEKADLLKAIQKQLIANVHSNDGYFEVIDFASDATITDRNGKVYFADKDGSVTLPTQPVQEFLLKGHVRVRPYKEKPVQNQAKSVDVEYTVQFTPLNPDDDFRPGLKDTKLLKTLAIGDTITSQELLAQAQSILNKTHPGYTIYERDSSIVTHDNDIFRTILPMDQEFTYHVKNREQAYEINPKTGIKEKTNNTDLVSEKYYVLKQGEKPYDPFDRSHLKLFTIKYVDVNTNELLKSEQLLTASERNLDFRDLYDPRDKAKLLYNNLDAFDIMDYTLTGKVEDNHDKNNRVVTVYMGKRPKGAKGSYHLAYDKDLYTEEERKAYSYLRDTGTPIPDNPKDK
The assay can be described thus: S. pyogenes streptokinase expression inhibitors, potency, dose response, plasminogen activation absorbance, OD405 (AID 1914).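 Further: secreted streptokinase activity via plasminogen activation per viability signal from cell pellet.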 In kind it is functional, Streptococcus pyogenes M1 GAS.

Assay [3] in a line: HEp-2 cell cytotoxicity, dose response, cytotoxicity control for RSV inhibitor project, HTS (AID 2410). In kind it is functional. The note with it: human respiratory syncytial virus.

Cytochrome P450 2C19, sequence (P33261 whole entry): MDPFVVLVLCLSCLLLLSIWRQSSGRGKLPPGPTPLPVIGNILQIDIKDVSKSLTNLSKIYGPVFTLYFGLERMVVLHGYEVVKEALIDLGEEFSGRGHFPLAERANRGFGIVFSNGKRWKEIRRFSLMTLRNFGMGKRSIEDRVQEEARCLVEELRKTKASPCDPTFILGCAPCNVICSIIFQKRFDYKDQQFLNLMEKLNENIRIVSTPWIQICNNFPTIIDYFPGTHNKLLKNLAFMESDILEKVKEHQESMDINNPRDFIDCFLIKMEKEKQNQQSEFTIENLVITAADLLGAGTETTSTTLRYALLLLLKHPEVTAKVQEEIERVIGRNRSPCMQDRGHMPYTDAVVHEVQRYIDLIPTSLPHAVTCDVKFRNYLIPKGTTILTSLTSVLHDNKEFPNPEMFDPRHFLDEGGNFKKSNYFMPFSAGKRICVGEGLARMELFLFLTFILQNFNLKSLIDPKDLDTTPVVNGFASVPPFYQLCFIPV
Cytochrome P450 3A4, sequence (P08684 whole entry): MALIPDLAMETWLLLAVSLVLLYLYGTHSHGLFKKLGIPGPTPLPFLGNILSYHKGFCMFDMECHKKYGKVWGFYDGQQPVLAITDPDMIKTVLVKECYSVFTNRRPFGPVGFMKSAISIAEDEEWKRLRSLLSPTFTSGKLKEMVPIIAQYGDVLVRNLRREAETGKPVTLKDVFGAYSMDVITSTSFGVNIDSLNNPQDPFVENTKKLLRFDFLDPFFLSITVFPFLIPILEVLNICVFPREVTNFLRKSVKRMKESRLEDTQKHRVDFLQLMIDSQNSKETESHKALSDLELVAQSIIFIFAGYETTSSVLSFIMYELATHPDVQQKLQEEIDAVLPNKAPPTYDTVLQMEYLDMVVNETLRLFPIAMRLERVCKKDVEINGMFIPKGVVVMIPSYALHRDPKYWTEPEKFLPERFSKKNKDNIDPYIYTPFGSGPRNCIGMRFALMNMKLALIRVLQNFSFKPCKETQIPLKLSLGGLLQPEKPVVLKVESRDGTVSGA
Cytochrome P450 2C9, sequence (P11712 whole entry): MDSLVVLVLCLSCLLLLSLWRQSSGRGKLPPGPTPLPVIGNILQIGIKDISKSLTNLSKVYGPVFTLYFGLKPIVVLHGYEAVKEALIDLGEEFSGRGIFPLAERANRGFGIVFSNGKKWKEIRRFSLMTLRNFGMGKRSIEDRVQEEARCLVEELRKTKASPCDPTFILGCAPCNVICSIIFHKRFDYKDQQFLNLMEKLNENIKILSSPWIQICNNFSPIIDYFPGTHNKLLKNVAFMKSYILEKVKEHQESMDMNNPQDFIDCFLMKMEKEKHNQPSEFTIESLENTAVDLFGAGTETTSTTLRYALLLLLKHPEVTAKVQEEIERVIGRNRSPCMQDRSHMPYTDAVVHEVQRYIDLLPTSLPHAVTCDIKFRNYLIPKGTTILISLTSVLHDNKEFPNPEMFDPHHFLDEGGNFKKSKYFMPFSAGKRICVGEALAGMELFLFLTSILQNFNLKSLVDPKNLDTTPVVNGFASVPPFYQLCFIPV
Cytochrome P450 2D6, sequence (P10635 whole entry): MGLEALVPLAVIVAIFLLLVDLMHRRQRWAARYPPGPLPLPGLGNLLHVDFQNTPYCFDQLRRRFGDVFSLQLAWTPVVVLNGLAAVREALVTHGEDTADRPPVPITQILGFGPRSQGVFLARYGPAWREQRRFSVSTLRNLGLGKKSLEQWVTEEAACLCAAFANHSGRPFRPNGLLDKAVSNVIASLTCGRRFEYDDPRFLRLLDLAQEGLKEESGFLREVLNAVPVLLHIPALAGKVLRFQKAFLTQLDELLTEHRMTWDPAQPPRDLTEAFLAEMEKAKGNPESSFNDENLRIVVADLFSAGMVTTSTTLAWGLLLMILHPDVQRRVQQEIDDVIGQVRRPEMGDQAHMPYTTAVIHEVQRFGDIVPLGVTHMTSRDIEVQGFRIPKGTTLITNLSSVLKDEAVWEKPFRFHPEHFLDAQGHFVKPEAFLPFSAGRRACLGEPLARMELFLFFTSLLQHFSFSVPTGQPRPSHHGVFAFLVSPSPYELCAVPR

For `Cc1ccc(S(=O)(=O)n2cnc3ccccc32)cc1[N+](=O)[O-]`, the EC50 in assay [1] is > 260 µM (inactive). `CSc1nc(Sc2cccc(Cl)c2)c2ccccc2n1`: on Cytochrome P450 3A4, the concentration at half-maximal activity (AC50) was 35.5 µM (inconclusive).

`N#Cc1cccc(-c2cncnc2-n2ccnc2)c1`: the AC50 on Cytochrome P450 2C19 and at Cytochrome P450 2D6 was 39.8 µM (inconclusive) throughout. For `CCc1ccccc1NC(=O)COc1ccc2c(=O)c(Oc3cc(C)ccc3C)coc2c1`, in [1], the EC50 is > 260 µM (inactive). Turning to `N#C/C(=C(/O)CN1CCN(c2ccccc2F)CC1)c1nc(-c2ccccc2)cs1`, the 50% effective concentration (EC50) is 11.7 µM (active) in assay [2], 86.1 µM (active) with Streptococcus and > 150 µM (not active) at Streptokinase A. Also, the CC50 in [3] is 5 µM (active).

With `CN1CCN(c2ccnc(-c3ccoc3)n2)CC1`, the AC50 on Cytochrome P450 2D6 was 39.8 µM (inconclusive). On to `CN(C)CC(C)(C)CN1c2ccccc2Sc2ccccc21`, for which the AC50 is 2 µM (inconclusive) at Cytochrome P450 2C19 and 5.01 µM (inconclusive) at Cytochrome P450 3A4. For the compound `Cc1n[nH]c(C)c1CCCOc1ccccc1`, the EC50 (in [2]; in the assay on Streptococcus; on Streptokinase A) was > 150 µM (not active) throughout.

With `CN(C)Cc1cc(C(F)(F)F)ccc1C(O)(c1ccccc1)c1ccccc1`, on Cytochrome P450 2D6, the AC50 is 3.16 µM (inconclusive).

With `COc1ccccc1N1CCN(C(=O)c2ccc3c(=O)n(Cc4ccco4)c(=S)[nH]c3c2)CC1`, the EC50 in assay [1] was > 260 µM (inactive).

Take `CC1=C(Nc2c(C)cc(O)cc2O)C(=O)C=c2oc3c(c21)C(C)=C(Nc1c(C)cc(O)cc1O)C(=O)C=3`: at Cytochrome P450 2D6, the AC50 is 2.51 µM (inconclusive).

As for `COc1cccc(-c2ccc3ncnc(N4CCN(C)CC4)c3c2)c1`, the AC50 on Cytochrome P450 2C19 was 31.6 µM (inconclusive); at Cytochrome P450 2D6, 39.8 µM (inconclusive). For `Cc1ccc(-c2nc3ncccn3c2Nc2ccccc2C)o1`, the EC50 in assay [1] is > 260 µM (inactive). On to `CCc1ccccc1N=C(S)NC1CC2CCC(C1)N2Cc1ccco1` (configuration not stated), for which the AC50 on Cytochrome P450 2D6 was 14.1 µM (inconclusive); at Cytochrome P450 3A4, 20 µM (inconclusive). As to `CCC/C=C(\CCC)C(NC(=O)c1ccc(C(F)(F)F)cc1)c1ccc(C(F)(F)F)cc1` (configuration not stated), the concentration at half-maximal activity (AC50) at Cytochrome P450 3A4 was 10 µM (inconclusive). Take `CCNc1ncc2ncc(=O)n(Cc3cccs3)c2n1`: the AC50 at Cytochrome P450 2C19 is 20 µM (inconclusive); on Cytochrome P450 3A4, 20 µM (inconclusive); on Cytochrome P450 2C9, 15.8 µM (inconclusive). Turning to `Cc1ccc(S(=O)(=O)N[C@@H](CCc2ccccc2)CC(=O)C(C)(C)C)cc1`, the half-maximal activity concentration (AC50) at Cytochrome P450 2D6 is 3.16 µM (inconclusive).

`O=C(c1ccc(Cl)c(Cl)c1)c1cc(-c2ccccn2)c(N2CCOCC2)s1`: the AC50 on Cytochrome P450 2D6 was 10 µM (inconclusive). Still for that read-out and setting: the result for `Cn1c(-c2sc(=S)n(-c3ccccc3)c2N)nc2ccccc21` reads 1.26 µM (inconclusive). Consider `COCCCNCCOc1ccc(C)cc1[N+](=O)[O-]`, for which, in assay [1], the EC50 was > 260 µM (inactive). For `CCOC(=O)C1=C(CN2CCc3ccccc32)NC(=O)NC1c1ccc(Cl)cc1` (configuration not stated), in assay [1], the EC50 is > 260 µM (inactive). As to `Cc1cccc(Oc2nc(-c3ccncc3)nc3ccccc23)c1`, the EC50 in assay [2] is 10.9 µM (active); in the assay on Streptococcus, 12.5 µM (active); on Streptokinase A, > 150 µM (not active). Take `COc1cc2c(cc1NC(=O)COC(=O)[C@@H](NS(=O)(=O)c1ccccc1)C(C)C)oc1ccccc12`: the EC50 in assay [1] is > 260 µM (inactive). On to `CC(=O)c1ccc(NC(=O)CCCN2C(=O)/C(=C/C(C)=C/c3ccccc3)SC2=S)cc1`, for which, in [1], the EC50 is 106 µM (active).

Regarding `CCS(=O)(=O)N1Cc2ccccc2CC1C(=O)Nc1nnc(SCc2ccc(F)cc2)s1` (configuration not stated), the figures for the half-maximal effective concentration (EC50) (in assay [2]; in the assay with Streptococcus; at Streptokinase A) were 8.48 µM (active), 91.2 µM (active) and > 150 µM (not active), respectively. For `Nc1nn2c(O)c3c(nc2c1N=Nc1ccc(Cl)cc1)CCCC3` the same measures were 6.99 µM (active), > 150 µM (not active) and > 150 µM (not active).

For the compound `Cc1cccc(CN(C(S)=Nc2c(C)cccc2C)c2cccnc2)c1`, the EC50 in [1] is > 260 µM (inactive). On to `Oc1nc(CN2CC=C(c3ccccc3)CC2)nc2scc(-c3cccs3)c12`, for which the results for the half-maximal effective concentration (EC50) (in assay [2]; in the assay on Streptococcus; on Streptokinase A) were 12.2 µM (active), > 150 µM (not active) and > 150 µM (not active), respectively. On to `COC(=O)c1ccc(C(NC(=O)c2ccccc2)[C@]2(C)C[C@H]2C2CCCCC2)cc1` (some centres not stated), for which the concentration at half-maximal activity (AC50) at Cytochrome P450 3A4 was 6.31 µM (inconclusive). As to `CC(=O)O[C@]12CC[N@+]3(C)CCCC[C@@H]3[C-]1Nc1ccccc12`, the AC50 on Cytochrome P450 2D6 is 3.16 µM (inconclusive). In the case of `COc1ccc(C2CC3=Nc4ncnn4C(c4ccccc4)C3=C(O)C2)cc1` (configuration not stated), in [1], the EC50 is > 260 µM (inactive).

For `Cn1cccc1C(=O)N1CCC2(CCCN(Cc3ccccc3)C2)CC1`, the AC50 on Cytochrome P450 3A4 was 31.6 µM (inconclusive). As for `C/C(=N\NC(=S)NCc1ccccc1)c1cccc(Br)c1`, the EC50 in [2] was 8.85 µM (active); with Streptococcus, > 150 µM (not active); on Streptokinase A, > 150 µM (not active).

On to `Clc1ccc(-c2nc(/C=N/N3CCOCC3)c3ccccn23)cc1`, for which the EC50 in [1] was > 260 µM (inactive).

Consider `CC1(C)CC(=O)C/C(=N/NC(=O)CCCOc2ccc(Cl)cc2Cl)C1`, for which the EC50 in assay [1] is > 260 µM (inactive). Consider `CCOc1ccc(/C=N/NC(=S)NC2CC3CC2C2C=CCC32)cc1` (configuration not stated), for which the results for the half-maximal effective concentration (EC50) (in assay [2]; in the assay with Streptococcus; at Streptokinase A) were 14.4 µM (active), 19.8 µM (active) and > 150 µM (not active), respectively. In the case of `O=C(N/N=C/c1c[nH]c2ccc(Br)cc12)c1ccn(Cc2ccc(Cl)cc2)n1`, the values for the AC50 at Cytochrome P450 3A4 and at Cytochrome P450 2C9 were 3.98 µM (inconclusive) and 39.8 µM (inconclusive), respectively. Turning to `COc1ccc(C)cc1NC(=O)C/C(C)=N/NC(=O)Cc1cccc2ccccc12`, the EC50 in assay [1] was > 260 µM (inactive). On to `O=C(O)c1c(Br)c(Br)c(Br)c(Br)c1C1c2ccc(O)cc2Oc2cc(O)ccc21`, for which the figures for the AC50 on Cytochrome P450 3A4 and on Cytochrome P450 2C9 were 3.98 µM (inconclusive) and 7.94 µM (inconclusive), respectively. Turning to `Cc1ccc(C2CC(c3cccs3)=NN2C(=O)c2ccc(Br)o2)cc1` (configuration not stated), the values for the EC50 (in assay [2]; with Streptococcus; on Streptokinase A) were 3.12 µM (active), 34.1 µM (active) and > 150 µM (not active), respectively.

Source of the values: ChEMBL document CHEMBL1201862, “PubChem BioAssay data set” (2004).
